Experimental findings from the METLIN SMRT retention time set (Domingo-Almenara et al. 2019) are described below.

Structures are written as SMILES.

The nature of the data set: gradient 5% acetonitrile 3 min, to 50% in 2 min, to 85% in 15 min, held 3 min, 100 µL/min. The following applies: column: Zorbax Extend-C18 2.1 x 50 mm; eluents: water / acetonitrile, 0.1% formic acid. The procedure, abridged:
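The system's dead and dwell volumes were 40 μL and 900 μL, with a Zorbax Extend-C18 column (2.1 × 50 mm, 1.8 μm) run at 100 μL/min in water and acetonitrile containing 0.1% formic acid each. Pure standards were analyzed in mixtures of ~100 molecules by HPLC–quadrupole time-of-flight mass spectrometry in positive and negative ionization mode. Retention time was assigned from computationally picked, manually inspected adduct peaks.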
The compound `O=C(Cn1nc(C2CC2)cc1C(=O)N1CCCC1)Nc1ccccc1` showed an RP-LC retention time of 740 s.
Under `C=CCc1c(C)nc2c(-c3ccccc3)cnn2c1NCCN(C)C` stands 660 s; under `CCN(CC)c1ccc(C(=O)N2CCC(c3cc(N)on3)CC2)cc1`, 605 s.
Compound `CSc1ccc(CCNC(=O)c2nc(N3CCOCC3)c3ccccc3n2)cc1` yielded an RP-LC retention time of 721 s.
Compound `CCn1c(=O)c(C(=O)NCc2ccc(F)cc2F)nc2cccnc21` registered an RP-LC retention time of 816 s.
With `CSc1ccc(CCNC(=O)c2ccc3c(c2)nc(C)c(=O)n3C)cc1` the figure was 765 s; with `O=C(Cn1cnc2onc(-c3ccc(Cl)cc3)c2c1=O)N1CCCc2ccccc21`, 1100 s.
Under `CC(=O)N1CCc2c([nH]c3ccccc23)C12C(=O)N(CC(C)C)c1ccc(Br)cc12` (centres undefined) stands 974 s; under `Cc1[nH]c2ccccc2c1C(=O)C(=O)NC1CC(=O)N(c2ccccc2)C1` (centres undefined), 711 s.
Under `CN1CC[C@H](c2c(O)cc(O)c3c(=O)cc(-c4ccccc4Cl)oc23)[C@H](O)C1` stands 689 s.
Consider `Cc1ccccc1NC(=O)C1CCCN(c2ccc3cc(S(=O)(=O)N4CCCCC4)ccc3n2)C1` (centres undefined), for which the RP-LC retention time came to 835 s.
In turn, `Cc1csc(-c2cc(S(=O)(=O)NCCCN3CCCc4ccccc43)c(C)s2)n1` showed an RP-LC retention time of 1420 s.
With `Fc1ccc(F)c(CN2CCCCC2c2nc(-c3cnccn3)no2)c1` (centres undefined) the figure was 918 s; with `O=C(CCSc1ccccc1)N1CCCC(c2nnc(-c3cccs3)o2)C1` (centres undefined), 837 s.
With `CN1C(=O)c2cc(C(=O)NCCc3ccccc3)nn2CC1(C)C(=O)NCc1ccc(F)cc1` (centres undefined) the figure was 768 s.
In turn, `CCc1onc(C)c1C1CCCN1C(=O)Cc1ccc(OC)c(OC)c1` (centres undefined) registered an RP-LC retention time of 718 s.
The compound `CCN1CCN(CCCNC(=O)C2CCN(Cc3cn(C)c4ccc(Cl)cc34)CC2)CC1` gave an RP-LC retention time of 564 s.
Under `Cc1ccc(CNC(=O)C2(C)CN(S(C)(=O)=O)CC(=O)N2c2ccc(C)c(Cl)c2)cc1` (centres undefined) stands 874 s; under `O=C(Cn1nc(N2CCOCC2)c2ccccc2c1=O)Nc1ccc(F)c(F)c1`, 796 s; under `CC(C)CNC(=O)C1CCCN(c2ncnc3c2oc2ccccc23)C1` (centres undefined), 725 s.
Under `Cc1ccc(CNC(=O)Nc2ccc3nncn3c2)cc1` stands 680 s.
The compound `COc1cccc(Cn2nc3c(S(=O)(=O)N4CCc5ccccc5C4)cccn3c2=O)c1` had an RP-LC retention time of 943 s.
With `CCCN(C)c1nccn2c(=O)n(CC(=O)Nc3ccc4c(c3)OCCO4)nc12` the figure was 642 s.
Under `O=C1CC(c2noc(-c3ccc(F)cc3)n2)CN1c1ccc(F)cc1` (centres undefined) stands 961 s; under `Cc1nc2cc(-c3noc(/C=C/c4ccco4)n3)ccc2o1`, 1010 s.
Turning to `CC(C)CN1CCn2cc(C(=O)NCC3CCCCC3)nc2C1`, the RP-LC retention time was found to be 634 s.
With `Cc1ccc(NC(=O)NCC(c2cccnc2)c2cn(C)c3ccccc23)cc1F` (centres undefined) the figure was 722 s; with `O=C1CCCN1CCCN1C(=O)[C@H]2CN(Cc3ccc(F)c(Cl)c3)C[C@H]2C1=O`, 599 s.
Compound `CC(C)NC(=O)c1ccc(OCC2CCCN(C(=O)Cc3ccccc3Cl)C2)cc1` (centres undefined) registered an RP-LC retention time of 899 s.
Consider `O=C(N[C@H]1C[C@@H]2C[C@H]1CN2C(=O)Nc1ccc2c(c1)OCO2)c1cccs1`, for which the RP-LC retention time was 623 s.
With `Cc1ccc2c(Nc3cc(F)cc(F)c3)c(C(=O)N3CCCC3)cnc2n1` the figure was 615 s.
With `CCOc1ccccc1CNC(=O)c1cnc(OC)nc1` the figure was 702 s.
Compound `COc1ccc(C(=O)N2CCN(c3nc(CN4CCOCC4)cs3)CC2)cn1` registered an RP-LC retention time of 580 s.
Under `Cc1nnc(NC(=O)c2csc(Nc3ccc(OC(F)F)cc3)n2)s1` stands 781 s; under `COc1cccc(C(=O)NC2CCN(c3ccc(F)cc3)C2=O)c1` (centres undefined), 756 s.
As to `c1ccc(-c2nc(-c3ccncc3)no2)c(OC2CCN(C3CCCC3)C2)c1` (centres undefined), the RP-LC retention time came to 667 s.
Compound `Cc1ccc(-c2cc3c(=O)n(Cc4noc(CN5CCOCC5)n4)ccn3n2)cc1C` yielded an RP-LC retention time of 777 s.
On to `CCC(C)NC(=O)N1CCCN(C2=NS(=O)(=O)C(c3ccc(C)c(C)c3)=C2C)CC1` (centres undefined), for which the RP-LC retention time came to 843 s.
Under `COc1cccc(-c2cc3n(n2)C(NC2CC2)CNC3=O)c1` (centres undefined) stands 562 s; under `Cc1ccc2[nH]c(C(=O)NCc3ccncc3)cc2c1`, 628 s; under `CC(C)c1ccc(-c2ccnc3c(C(=O)NCc4cccnc4)cnn23)cc1`, 723 s.
In turn, `CCOC(=O)c1nn(-c2cc(C(=O)OC)cc(C(=O)OC)c2)cc1O` came in with an RP-LC retention time of 769 s.
Under `Clc1cc(-c2nc(-c3cccc(-c4ccn[nH]4)c3)no2)ccn1` stands 949 s; under `Cn1cc(S(=O)(=O)N2CCC(C(=O)Nc3ccc4c(c3)OCO4)CC2)cc1C(=O)N1CCCC1`, 716 s; under `CC(C)CN(CC(C)C)c1nc(-c2ccccc2)nc2ccccc12`, 951 s.
With `Cc1nn(CC(=O)Nc2ccccc2C(F)(F)F)c(C)c1[N+](=O)[O-]` the figure was 792 s; with `CCOc1ccc(NC(=O)CCC2CCCN(c3cc(NC4CC4)ncn3)C2)cc1` (centres undefined), 692 s.
For the compound `CC1CN2C=NC(N3CCN(C(=O)Nc4ccc(F)cc4F)CC3)=CC2=N1` (centres undefined), the RP-LC retention time was 664 s.
With `COc1ccccc1-c1cnn2c(Nc3ccc(NC(C)=O)cc3)cc(C)nc12` the figure was 593 s; with `O=C(NCc1ccc2c(c1)OCO2)C1CCN(c2cnc3nccnc3c2)CC1`, 659 s.
Under `Nc1nc2c(cnn2CCc2ccccc2)c2nc(-c3ccco3)nn12` stands 880 s; under `CCN1c2ccc(F)cc2C(=O)NC12CCN(C(=O)c1cc(F)cc(F)c1)CC2`, 1030 s.
Under `CCCN1C(=O)c2ccccc2Sc2cc(-c3noc(CNC(=O)c4ccco4)n3)ccc21` stands 911 s; under `Cc1ccc(S(=O)(=O)N2CCC(n3c(-c4ccoc4)nc4cccnc43)C2)cc1Cl` (centres undefined), 986 s; under `COCCCNC(=O)c1ccc2c(c1)CCCN2S(=O)(=O)c1ccccc1`, 822 s.
The compound `COc1cc(-c2noc(Cn3ncn4nc(-c5ccc(C)cc5C)cc4c3=O)n2)cc(OC)c1OC` showed an RP-LC retention time of 1130 s.
With `CC1CCN(Cc2nc3cc(NC(=O)c4ccco4)ccc3n2C(C)C)CC1` the figure was 643 s; with `CCOC(=O)c1csc(NC(=O)c2ccn(CC)n2)n1`, 702 s.
With `CCCCC(=O)NC1=C(C(=O)OC)SCC1` the figure was 905 s.
In the case of `Cc1cccc(S(=O)(=O)Nc2cc(-c3cn4cccc(C)c4n3)ccc2C)c1`, the RP-LC retention time came to 695 s.
In the case of `O=C(C1CC(=O)N(c2ccc3c(c2)CCN3C(=O)C2CC2)C1)N1CCOCC1` (centres undefined), the RP-LC retention time stood at 634 s.
Under `O=C(Nc1cccc(C(F)(F)F)c1)Nc1cccn2ncnc12` stands 896 s; under `O=C(NCCc1c[nH]c2ccc(Cl)cc12)c1ccccc1Cl`, 873 s; under `Cc1ccc(CNC(=O)c2ccc3cnn(Cc4ccc(F)cc4)c3c2)o1`, 916 s.
For `O=C(Nc1cccc(F)c1)C1CCN(S(=O)(=O)c2cc(C(=O)N3CCCC3)cs2)CC1`, the RP-LC retention time is 829 s.
Under `CCn1c(C(=O)NCc2ccc(C)cc2)cc2sc(Cl)cc21` stands 1200 s.
The compound `Cc1cc2nn(CC(=O)NCc3ccco3)c(=O)n2c(Nc2ccc(C)c(F)c2)n1` yielded an RP-LC retention time of 923 s.
With `COc1ccc(-n2ncc3c(=O)n(Cc4nc(-c5cc(OC)c(OC)c(OC)c5)no4)cnc32)cc1` the figure was 927 s.
Consider `COCCN1CCC(N2CCN(S(=O)(=O)c3ccccc3Cl)CC2)C1=O` (centres undefined), for which the RP-LC retention time came to 567 s.
Under `COC(=O)c1cc(OCC(=O)Nc2ccc(OC)c(OC)c2)c2cc(F)ccc2n1` stands 756 s.
Under `O=C(NC1CC(=O)N(c2ccc3c(c2)OCCO3)C1)c1ccc(-c2ccccc2)cc1` (centres undefined) stands 866 s; under `Cc1ccc(CNC(=O)c2ccc3ncnc(N4CCCC4)c3c2)o1`, 617 s.
With `CCC1(C(=O)Nc2ccc(C(C)C)cc2)CCCCC(=O)N1` (centres undefined), the RP-LC retention time came out at 872 s.
With `COCCN1C(=O)[C@H]2CN(Cc3ccc(F)c(F)c3)C[C@H]2C1=O` the figure was 623 s; with `COc1ccc(N2CCN(C(=O)c3cn4nc(OC)ccc4n3)CC2)cc1`, 683 s.
Compound `COC(=O)CCNC(=O)C1c2ccccc2C(=O)N(CC(C)C)C12CCCCC2` (centres undefined) displayed an RP-LC retention time of 842 s.
In turn, `CN(C)S(=O)(=O)c1ccc2c(c1)Cc1cc(S(=O)(=O)N(C)C)ccc1-2` came in with an RP-LC retention time of 820 s.
With `O=C(NCCN1CCCC1)c1ccc2nc(-c3ccccc3)cn2c1` the figure was 552 s.
As for `CCc1ccc(C2=C(C)C(N3CCCN(C(=O)CC(C)(C)C)CC3)=NS2(=O)=O)cc1`, the RP-LC retention time was 949 s.
